Data on one compound can be found in patent US11964981B1, “Substituted pyrimido[4,5-b]indoles as CK2 inhibitors” (KING FAISAL UNIVERSITY, priority 2023, dated 2024).

The subject of one test is PC3 (prostate). Description: In vitro cytotoxic activity MTT assay, PC3. The test is classed as cell-based. The following applies: Homo sapiens, Prostate cell; PC3 (prostate) cells, exposed for 96 hours; read-out: IC50, concentration of compound eliciting a 50% inhibition of cell proliferation. On the procedure: (§1) Compounds 1-16 were screened for their in vitro cytotoxic activity utilizing a 3-(4,5-dimethyl-thiazol-2-yl)-2,5-diphenyltetrazolium bromide (MTT) assay against selected cancer human cell lines consisting of PC3 (prostate), HCT116 (colon), A375 (melanoma), H1299 (lung), MIAPaCa-2 (pancreas), HL60 (leukemia), MCF7 (breast), MDA-MB-231 (breast) (T. Mosmann, J. Immunol. Meth., 1983, 65, 55-63). The cells were cultured at 37° C. in RMPI1640 medium supplemented with 10% fetal bovine serum, 50 IU/mL penicillin, and 50 μg/mL streptomycin in a 5% CO2 incubator. All cells were sub-cultured 3 times/week by trypsinisation. Viable cells were seeded and allowed to adhere for 12 h before a test drug was added in 96-well plates at an initial density of 1.0×10^5 cells/mL. Tumor cell lines were separately exposed to various concentrations of the tested compounds followed by incubation at a temperature of 37° C. during 96 h inside a medium of fresh RMPI 1640. Cells were subsequently incubated at 37° C. using MTT at 0.5 mg/mL during 4 hours. After removal of supernatant, formazan crystals were dissolved in isopropanol and the optical density was measured at 570 nm. CX-4945 was used as a positive control.

For a further test, the system named is HCT116 (colon). Description: In vitro cytotoxic activity MTT assay, HCT116. It is filed as cell-based. The following applies: Homo sapiens, HCT-116; HCT116 (colon) cells, exposed for 96 hours; read-out: IC50, concentration of compound eliciting a 50% inhibition of cell proliferation. How it is done: as §1
(In general: Tetrazolium assays rely on reduction of a dye to a coloured formazan, in cell work by metabolically active cells.)

The next test deals with A375 (melanoma). Description: In vitro cytotoxic activity MTT assay, A375. The test is classed as cell-based. The following applies: Homo sapiens, A-375; A375 (melanoma) cells, exposed for 96 hours; read-out: IC50, concentration of compound eliciting a 50% inhibition of cell proliferation. How it is done:
as §1

The test system of a further test is H1299 (lung). Description: In vitro cytotoxic activity MTT assay, H1299. The test is classed as cell-based. The note with it: Homo sapiens, NCI-H1299; H1299 (lung) cells, exposed for 96 hours; read-out: IC50, concentration of compound eliciting a 50% inhibition of cell proliferation. On the procedure: as §1
The next test has as its system MIAPaCa-2 (pancreas). As to the kind of experiment: In vitro cytotoxic activity MTT assay, MIAPaCa-2. The note with it: Homo sapiens, MIA PaCa-2; MIAPaCa-2 (pancreas) cells, exposed for 96 hours; read-out: IC50, concentration of compound eliciting a 50% inhibition of cell proliferation. It is filed as cell-based. On the procedure: as §1
The subject of the next test is HL60 (leukemia). As to the kind of experiment: In vitro cytotoxic activity MTT assay, HL60. The test is classed as cell-based. The note with it: Homo sapiens, HL-60; HL60 (leukemia) cells, exposed for 96 hours; read-out: IC50, concentration of compound eliciting a 50% inhibition of cell proliferation. How it is done: as §1
A further test relates to MCF7 (breast). As to the kind of experiment: In vitro cytotoxic activity MTT assay, MCF7. The following applies: Homo sapiens; MCF7 (breast) cells, exposed for 96 hours; read-out: IC50, concentration of compound eliciting a 50% inhibition of cell proliferation. It is filed as cell-based. On the procedure: as §1
Another test relates to MDA-MB-231 (breast). As to the kind of experiment: In vitro cytotoxic activity MTT assay, MDA-MB-231. It is filed as cell-based. The following applies: Homo sapiens; MDA-MB-231 (breast) cells, exposed for 96 hours; read-out: IC50, concentration of compound eliciting a 50% inhibition of cell proliferation. On the procedure: as §1
For the next test, the target named is T1, recombinant human CK2 (Homo sapiens, UniProt P68400).
T1 construct: purchased Millipore
T1 sequence (P68400 whole entry): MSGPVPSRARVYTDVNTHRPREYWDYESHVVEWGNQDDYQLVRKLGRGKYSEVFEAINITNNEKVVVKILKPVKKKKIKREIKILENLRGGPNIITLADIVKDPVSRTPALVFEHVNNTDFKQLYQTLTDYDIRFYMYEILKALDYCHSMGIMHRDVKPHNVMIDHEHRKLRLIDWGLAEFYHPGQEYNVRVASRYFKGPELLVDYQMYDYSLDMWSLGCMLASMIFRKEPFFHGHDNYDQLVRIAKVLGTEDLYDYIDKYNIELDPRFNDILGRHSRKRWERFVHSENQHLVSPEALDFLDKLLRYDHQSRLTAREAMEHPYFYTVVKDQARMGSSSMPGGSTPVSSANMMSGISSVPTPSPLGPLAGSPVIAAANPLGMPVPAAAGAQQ
T1 sequence (P67870 whole entry partner): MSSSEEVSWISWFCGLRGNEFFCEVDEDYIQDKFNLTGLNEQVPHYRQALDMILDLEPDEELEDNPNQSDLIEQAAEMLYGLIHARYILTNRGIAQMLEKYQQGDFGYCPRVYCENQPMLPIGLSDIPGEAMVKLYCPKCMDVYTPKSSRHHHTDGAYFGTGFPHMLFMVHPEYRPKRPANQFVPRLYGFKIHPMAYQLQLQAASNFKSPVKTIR
As to the kind of experiment: CK2 Kinase Assay (radiometric, 33P-ATP). It is filed as biochemical. The following applies: final ATP concentration 15 μM, 10 min at 30° C., eight concentrations; read-out: protein kinase CK2 IC50. On the procedure:
CK2 Kinase Assay was conducted using the protocol as described in Pierre F. et al; J. Med. Chem. 2011, 54, 635-654. The tested compounds in aqueous solution were added at a volume of 10 μL to a reaction mixture comprising 10 μL of assay dilution buffer (ADB; 20 mM MOPS, pH 7.2, 25 mM β-glycerol phosphate, 5 mM EGTA, 1 mM sodium orthovanadate, and 1 mM dithiothreitol), 10 μL of substrate peptide (RRRDDDSDDD, dissolved in ADB at a concentration of 1 mM), 10 μL of recombinant human CK2 (RROP-holoenzyme, 25 ng dissolved in ADB; Millipore). Reactions were initiated by the addition of 10 μL of ATP solution (90% 75 mMMgCl2, 75 μM ATP (final ATP concentration:15 μM) dissolved in ADB; 10% [γ-33P] ATP (stock 1 mCi/100 μL; 3000 Ci/mmol (Perkin-Elmer) and maintained for 10 min at 30° C. The reactions were quenched with 100 μL of 0.75% phosphoric acid and then transferred to and filtered through a phosphor cellulose filter plate (Millipore). After washing each well five times with 0.75% phosphoric acid, the plate was dried under vacuum for 5 min and, following the addition of 15 μL of scintillation fluid to each well, the residual radioactivity was measured using a Wallac luminescence counter. The IC50 values were derived from eight concentrations of test inhibitors.

With `O=C(O)c1ccc2[nH]c3ncnc(Nc4cccc(Cl)c4)c3c2c1` [Example 1, 4-((3-chlorophenyl)amino)-9H-pyrimido[4,5-b]indole-6-carboxylic acid], the IC50 came out at 1400 nM with PC3 (prostate); 1800 nM in the test with HCT116 (colon); 3300 nM with A375 (melanoma); 4500 nM with H1299 (lung); 900 nM in the test with MIAPaCa-2 (pancreas); 3000 nM in the test with HL60 (leukemia). The IC50 came to 4600 nM in the test on MCF7 (breast), 2900 nM with MDA-MB-231 (breast) and 68 nM on recombinant human CK2.
